{
  "source": "patent US8022052B2",
  "about": "“Inhibition of PPAR gamma expression by specific osteogenic oxysterols” (The Regents of the University of California, priority 2006, dated 2011)",
  "key": {"aP2": {"tested_on": "aP2", "assay": "aP2 mRNA expression in M2 cells by quantitative real-time PCR", "format": "cell-based, mouse", "procedure": ". M2 cells at confluence were treated with control vehicle, 10 μM Tro, or 5 μM 20S, alone or in combination for 24 hours (FIG. 4A), 48 hours (FIG. 4B), and 96 hours (FIG. 4C). aP2 mRNA expression was measured by quantitative real-time PCR. Fold changes in gene expression relative to the control were calculated using the ΔΔCt method and reported as the mean of triplicate determination ±SD (p<0.0001 for Tro or Tro+20S vs. control or 20S and p<0.01 for Tro vs. Tro+20S at 24 hours (FIG. 4A); p<0.0001 for Tro or Tro+20S vs. control or 20S and for Tro vs. Tro+20S at 48 hours (FIG. 4B); p<0.0001 for Tro vs. control, 20S, or Tro+20S and p<0.001 for Tro+20S vs. control or 20S at 96 hours (FIG. 4C))."}, "LPL": {"tested_on": "LPL", "conditions": "cyclopamine, data not shown", "from_the_text": "(§1) Total RNA was extracted with the RNA isolation kit from Stratagene (La Jolla, Calif., USA) according to the manufacturer's instructions. RNA was DNase-treated using DNA-free kit from Ambion (Austin, Tex., USA). Three micrograms of RNA was reverse-transcribed using reverse transcriptase from Stratagene to make single-stranded cDNA. The cDNA was mixed with Qi SYBR Green Supermix (Bio-Rad) for quantitative RT-PCR assay using a Bio-Rad I-cycler IQ quantitative thermocycler. All PCR samples were prepared in triplicate wells of a 96-well plate. After 40 cycles of PCR, melt curves were examined to ensure primer specificity. Fold changes in gene expression were calculated using the ΔΔCt method. […] Primers used are as follows: PPARγ2 (5′-[…]-3′ and 5′-[…]-3′), C/EBPα (5′-[…]-3′ and 5′-[…]-3′), ap2 (5′-[…]-3′ and 5′-[…]-3′), LPL (5′-[…]-3′ and 5′-[…]-[…]), GATA2 (5′-[…]-3′ and 5′-[…]-3′), GATA3 (5′-[…]-3′ and 5′-[…]-3′), GILZ (5′-[…]-3′ and 5′-[…]-3′), and pref-1 (5′-[…]-3′ and 5′-[…]-3′)."}, "PPARγ [1]": {"tested_on": "PPARγ", "assay": "PPARγ mRNA expression in M2 cells by RT-qPCR", "format": "cell-based, mouse", "procedure": "(§2) M2 mouse MSCs were purchased from American Type Culture Collection (ATCC, Rockville, Md., USA). […] Cell culture was performed in 24- and 6-well plates for adipogenic differentiation and gene expression studies, respectively, and treatment with test agents was done in growth medium.\nas §1\n(§3) Adipocyte formation was examined by Oil red O staining. […] PPARγ expression was assessed by RT-qPCR after treating M2 cells with Tro in the presence or absence of 20S. […] M2 cells at confluence were treated with control vehicle, 10 μM Tro, or 5 μM 20S, alone or in combination for 24 hours (FIG. 2A), 48 hours (FIG. 2B), and 96 hours (FIG. 2C). PPARγ mRNA expression was measured by quantitative real-time PCR.\n(§4) After 10 days, adipocyte formation was measured by Oil red O staining. The number of adipocytes was determined by counting Oil red O-positive cells in five separate fields per well, in three wells per experimental condition. […] After 48 h, PPARγ mRNA expression was measured by quantitative real-time PCR. […] Luciferase activity was measured after 24 h and normalized for transfection efficiency using the Renilla luciferase activity.\nAfter 48 hours of treatment, RNA was extracted from cells and analyzed for PPARγ expression by Q-RT-PCR. Data from a representative experiment, normalized to GAPDH expression, are reported as the mean of triplicate determinations ±SD."}, "[2]": {"tested_on": "M2-10B4 (M2) murine pluripotent bone MSC line", "assay": "Tro-induced adipocyte formation in M2 cells, Oil red O staining", "format": "cell-based, mouse", "procedure": "as §2\nOil red O staining for detection of adipocytes was performed as previously described. […] The number of adipocytes was quantitated by counting Oil red O-positive cells in five separate fields per well, in three wells per experimental condition. The results are reported as the mean of triplicate determination ±SD.\nas §3, §4\nSynthetic oxysterol compounds were studied for inhibition of adipogenesis and PPAR expression. […] After 10 days of treatment, cells were stained with Oil-red-O to detect adipocytes, and the number of positively stained cells was determined using light microscopy. Data from a representative experiment are reported as the mean of triplicate determination (average of five fields per well, 3 wells per experimental condition) ±SD."}, "[3]": {"tested_on": "M2-10B4 (M2) murine pluripotent bone MSC line", "conditions": "cited from earlier work"}, "murine PPARγ2 promoter": {"tested_on": "murine PPARγ2 promoter", "assay": "PPARγ2 promoter luciferase activity induced by C/EBPα overexpression in M2 cells", "format": "cell-based, mouse", "conditions": "p19-PPARγ2 with MSV-C/EBPα plasmid, 24 h", "procedure": "For PPARγ promoter activity assays, M2 cells were transiently transfected with a murine PPARγ2 promoter construct luciferase plasmid (p19-PPARγ2; (kind gift of Dr Steven McKnight), along with MSV-C/EBPα overexpression plasmid (kind gift of Dr. Sophia Tsai) and pTK-Renilla-Luciferase plasmid. Luciferase activity was measured after 24 h and normalized for transfection efficiency using the Renilla Luciferase activity.\nTo determine if 20S and Shh inhibit PPARγ expression by acting directly on its promoter, we focused on C/EBPα regulated PPARγ promoter activity.\nas §4"}, "[4]": {"tested_on": "GATA2, GATA3, Gilz, and pref-1", "assay": "GATA2, GATA3, Gilz and pref-1 expression in M2 cells by RT-qPCR", "format": "cell-based, mouse", "conditions": "24 and 48 h, data not shown", "from_the_text": "as §1"}, "GATA": {"tested_on": "GATA", "assay": "GATA luciferase reporter in M2 cells", "format": "cell-based, mouse", "conditions": "24 and 48 h, data not shown", "from_the_text": "(§5) M2 cells at 70% confluency in a 24-well plate were transiently transfected with: a plasmid containing three tandem repeats of the PPAR response element (PPRE) upstream of the basic thymidine kinase promoter (p3xPPRE-TK-Luciferase), a control pTK-Luciferase plasmid devoid of PPRE, a CMX-PPARγ expression plasmid (all kind gifts of Dr Peter Tontonoz), a CMX-RXRα expression plasmid (kind gift of Dr Sotirios Tetradis), and a pTK-Renilla-Luciferase plasmid (Promega, Madison, Wis., USA) using Fugene 6 Transfection Reagents from Roche (Indianapolis, Ind., USA). Luciferase activity assay was performed using Dual-Luciferase Reporter 1000 Assay System (Promega, Madison, Wis., USA). Luciferase reporter activity was normalized to Renilla Luciferase activity. […] For GATA reporter assays, M2 cells were transfected with a GATA Luciferase reporter vector or a control reporter vector (both from Panomics, Fremont, Calif., USA), and pTK-Renilla-Luciferase plasmid."}, "C/EBPα": {"tested_on": "C/EBPα", "assay": "C/EBPα mRNA expression in M2 cells by quantitative real-time PCR", "format": "cell-based, mouse", "conditions": "10 μM Tro, 5 μM 20S, 24, 48, 96 hours", "procedure": ". M2 cells at confluence were treated with control vehicle, 10 μM Tro, or 5 μM 20S, alone or in combination for 24 (FIG. 3A), 48 (FIG. 3B), and 96 (FIG. 3C) hours. C/EBPα mRNA expression was measured by quantitative real-time PCR. Fold changes in gene expression relative to the control were calculated using the ΔΔCt method and reported as the mean of triplicate determination ±SD (p<0.0001 for Tro vs. control and p<0.001 for Tro+20S vs. control at 24 hours (FIG. 3A); p<0.0001 for Tro vs. control and p<0.001 for Tro+20S vs. control at 48 hours (FIG. 3B); p<0.0001 for Tro or Tro+20S vs. control at 96 hours (FIG. 3C)."}, "LXRs": {"tested_on": "LXRs", "assay": "LXR activation in M2 cells", "format": "cell-based, mouse", "conditions": "data not shown"}, "PPARγ [5]": {"tested_on": "PPARγ", "assay": "PPRE luciferase reporter assay (PPARγ transcriptional activity) in M2 cells", "format": "cell-based, mouse", "from_the_text": "as §5\nM2 cells were transiently transfected with a reporter construct containing three tandem repeats of a PPRE (pTK-3×PPRE-Luciferase) or the control plasmid (pTK-Luciferase). Cells were treated with 10 μM Tro or control vehicle, and luciferase activity was measured after 24 and 48 h. […] Because PPARγ and retinoid X receptor (RXR) form obligatory heterodimers, we studied whether 20S would have an effect when both PPARγ and RXRα were overexpressed. […] Luciferase activity was measured after 24 hours and normalized for transfection efficiency using the Renilla luciferase activity. […] Luciferase activity was normalized for transfection efficiency using the Renilla luciferase activity. […] Luciferase activity was measured after 24 hours and normalized to the Renilla luciferase activity."}},
  "note": "Entries after “also recorded” stand apart in the source; their conditions may differ.",
  "data": [
    {"smiles": "CC1=C2C[C@H]3[C@@H](CC=C4C[C@@H](O)CC[C@@]43C)[C@@H]2CC[C@]12O[C@@H]1C[C@H](C)CN[C@H]1[C@H]2C", "note": "[cyclopamine]", "values": [
      {"measurement": "reversal of the inhibitory effects of 20S on aP2 expression", "setting": "aP2; cyclopamine, data not shown", "result": "reversed"},
      {"measurement": "reversal of the inhibitory effects of 20S on LPL expression", "setting": "LPL", "result": "reversed"},
      {"measurement": "reversal of the inhibitory effect of 20S on Tro-induced PPARγ mRNA expression (in words)", "setting": "PPARγ [1]", "result": "fully reversed; also recorded: completely abolished; also recorded: blocks; also recorded: completely blocked"},
      {"measurement": "reversal of the inhibitory effect of Shh on Tro-induced PPARγ mRNA expression (in words)", "setting": "PPARγ [1]", "result": "fully reversed; also recorded: completely abolished; also recorded: blocks; also recorded: completely reversed; also recorded: completely blocked"},
      {"measurement": "reversal of the inhibitory effects of 20S on Tro-induced adipocyte formation", "setting": "[2]", "result": 70, "unit": "%"},
      {"measurement": "reversal of the inhibitory effects of Shh on Tro-induced adipocyte formation", "setting": "[2]", "result": 100, "unit": "%"},
      {"measurement": "reversal of the anti-adipogenic effects of 20S (in words)", "setting": "[2]; 4 μM cyclopamine 2-h pretreatment, 10 μM Tro, 5 μM 20S, 10 days", "result": "reversed; also recorded: blocks; also recorded: did not completely reverse"},
      {"measurement": "reversal of the anti-adipogenic effects of Shh (in words)", "setting": "[2]; cyclopamine 2-h pretreatment, 10 μM Tro, 200 ng/mL Shh, 10 days", "result": "completely reversed; also recorded: blocks"},
      {"measurement": "additional effect on adipocyte formation of increasing the dose of cyclopamine", "setting": "[2]; cyclopamine from 4 to 8 μM, Tro+20S, data not shown", "result": "did not have any additional effect"}
    ]},
    {"smiles": "CC(C)CCC[C@](C)(O)[C@H]1CC[C@H]2[C@@H]3CC=C4C[C@@H](O)CC[C@]4(C)[C@H]3CC[C@@]21C", "note": "[Oxy 20S, 20(S)-hydroxycholesterol]", "values": [
      {"measurement": "effect of 20S on Tro-induced aP2 mRNA expression", "setting": "aP2; 10 μM Tro, 5 μM 20S, 24, 48, 96 hours", "result": "inhibited"},
      {"measurement": "inhibition of Tro-induced PPARγ mRNA expression", "setting": "PPARγ [1]; M2 cells, 10 μM Tro, oxysterol 5 μM, 24, 48, 96 h (20S), 48 h (Oxy13)", "result": "completely inhibited; also recorded: almost completely blocked; also recorded: specifically inhibited; also recorded: inhibits"},
      {"measurement": "inhibition of Tro-induced adipocyte formation", "setting": "[2]; M2 cells, 10 μM Tro, oxysterol 5 μM, 10 days", "result": "completely inhibited; also recorded: significantly inhibited"},
      {"measurement": "adipogenic differentiation of M2 cells (previously reported)", "setting": "[3]", "result": "inhibit"},
      {"measurement": "inhibition of PPARγ2 promoter activity induced by C/EBPα overexpression", "setting": "murine PPARγ2 promoter", "result": "greatly inhibited; also recorded: inhibit; also recorded: significantly inhibited"},
      {"measurement": "GATA2/GATA3, Gilz, and pref-1 gene expression", "setting": "[4]", "result": "does not increase"},
      {"measurement": "GATA transcriptional activity", "setting": "GATA", "result": "does not increase"},
      {"measurement": "effect of 20S on Tro-induced C/EBPα mRNA expression", "setting": "C/EBPα", "result": "did not inhibit"},
      {"measurement": "activation of LXRs", "setting": "LXRs", "result": "activation"},
      {"measurement": "effect of 20S on Tro-induced PPRE reporter activity (PPARγ transcriptional activity)", "setting": "PPARγ [5]; M2 cells overexpressing PPARγ", "result": "did not inhibit but rather enhanced; also recorded: not inhibited but rather enhanced; also recorded: does not inhibit"},
      {"measurement": "effect of 20S on PPARγ-RXRα induced PPRE reporter activity", "setting": "PPARγ [5]; M2 cells overexpressing PPARγ and RXRα, 24 hours", "result": "did not inhibit; also recorded: enhanced"},
      {"measurement": "effect of 20S on Tro-induced PPRE reporter activity", "setting": "PPARγ [5]; M2 cells without PPARγ overexpression, 24 hours", "result": "did not inhibit Tro-induced PPRE reporter activity, but instead caused a small but significant increase"}
    ]}
  ]
}
